In a compilation of properties of binary mixtures (doi:10.1016/j.jct.2020.106320):

Assay: xn = mol fraction of the nth substance listed
Conditions: 100 kPa

CCO + CC[n+]1ccn(CCOC)c1.N#C[S-]
x2 = 0
Conditions	viscosity [mPa·s]
288.15 K	1.319
293.15 K	1.194
298.15 K	1.085
303.15 K	0.988
313.15 K	0.826
318.15 K	0.757

CC[n+]1ccn(CCOC)c1.N#C[S-] + CCO
viscosity [mPa·s]
Conditions	x1 = 0.1	x1 = 0.1999	x1 = 0.3002	x1 = 0.3995	x1 = 0.5001	x1 = 0.6	x1 = 0.7	x1 = 0.797	x1 = 0.8964	x1 = 1
288.15 K	2.39	3.97	6.39	10.15	15.11	24.1	33.1	53.1	70.8	93.1
293.15 K	–	3.53	5.59	–	12.79	–	27.1	–	55.6	70.8
298.15 K	1.95	3.16	–	7.64	10.96	17.44	22.7	34.3	44.3	55.8
303.15 K	1.77	2.85	–	6.7	9.52	14.4	19.4	28.2	–	–
308.15 K	1.613	–	3.97	5.93	8.32	12.12	–	–	–	–
313.15 K	1.476	2.34	3.58	–	7.34	10.4	14.37	–	24.7	29.7
318.15 K	1.355	–	3.25	4.71	6.51	9.03	12.25	17.33	20.9	24.9
